For orientation: EC50 means the concentration at which the effect is half-maximal.

This assay has as its target T1, TAAR3 (Mus musculus, UniProt Q5QD16).
T1 construct: transiently expressed with Galpha-olf in HEK293 cells
T1 sequence (Q5QD16 1-343): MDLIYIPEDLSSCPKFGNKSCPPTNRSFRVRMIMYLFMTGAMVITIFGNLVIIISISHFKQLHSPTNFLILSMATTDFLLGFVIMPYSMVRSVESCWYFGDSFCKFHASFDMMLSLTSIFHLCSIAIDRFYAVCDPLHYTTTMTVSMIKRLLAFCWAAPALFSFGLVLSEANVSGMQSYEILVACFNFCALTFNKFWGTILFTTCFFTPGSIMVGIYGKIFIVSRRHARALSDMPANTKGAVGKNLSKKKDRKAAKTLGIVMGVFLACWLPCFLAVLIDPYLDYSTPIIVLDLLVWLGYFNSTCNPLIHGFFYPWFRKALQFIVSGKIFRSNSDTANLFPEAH
Nature of the assay: cAMP accumulation, HEK293 cells, luminescence. It counts as cell-based. A general note: Changes in cAMP serve as a functional read-out for many G protein-coupled receptors.

For `CC(C)CN` [isobutylamine], the response was half-maximal at 32 nM (EC50).
